Each block holds one compound with its values, some of them ahead of it. Calls of active or inactive are those of the source. The rule behind the calls is not given here.
Columns and labels:
MDA-MB-231 = experiment: Antiproliferative activity against human MDA-MB-231 cells assessed as inhibition of cell growth by MTT assay; assay type: functional, cell-based
A549 [1] = experiment: Antiproliferative activity against human A549 cells assessed as inhibition of cell growth by MTT assay; assay type: functional, cell-based
HCT-116 = experiment: Antiproliferative activity against human HCT-116 cells assessed as inhibition of cell growth by MTT assay; assay type: functional, cell-based
A549 [2] = experiment: Induction of apoptosis in human A549 cells assessed as dead cells at 0.22 uM incubated for 48 hrs by Annexin V/PI staining based flow cytometry analysis (reference value: 4.58%); assay type: functional
A549 [3] = experiment: Induction of apoptosis in human A549 cells assessed as increase in BAX protein expression at 0 to 0.34 uM measured after 48 hrs by Western blot analysis; assay type: functional, cell-based; details: dose 0-0.34 µM
A549 [4] = experiment: Induction of apoptosis in human A549 cells assessed as early apoptotic cells at 0.11 uM incubated for 48 hrs by Annexin V/PI staining based flow cytometry analysis (reference value: 1.79%); assay type: functional
A549 [5] = experiment: Induction of cell cycle arrest in human A549 cells assessed as accumulation at S phase at 0.22 uM incubated for 48 hrs by PI staining based flow cytometry analysis (reference value: 12.105%); assay type: functional
A549 [6] = experiment: Inhibition of cell migration in human A549 cells at 0.34 uM measured after 48 hrs by scratch assay relative to control; assay type: functional
A549 [7] = experiment: Induction of apoptosis in human A549 cells assessed as live cells at 0.22 uM incubated for 48 hrs by Annexin V/PI staining based flow cytometry analysis (reference value: 90.7%); assay type: functional
A549 [8] = experiment: Induction of apoptosis in human A549 cells assessed as late apoptotic cells at 0.22 uM incubated for 48 hrs by Annexin V/PI staining based flow cytometry analysis (reference value: 2.96%); assay type: functional
A549 [9] = experiment: Inhibition of cell migration in human A549 cells at 0.11 uM measured after 48 hrs by scratch assay relative to control; assay type: functional
A549 [10] = experiment: Inhibition of cell migration in human A549 cells at 0.22 uM measured after 24 hrs by scratch assay relative to control; assay type: functional
A549 [11] = experiment: Induction of cell cycle arrest in human A549 cells assessed as accumulation at S phase at 0.11 uM incubated for 48 hrs by PI staining based flow cytometry analysis (reference value: 12.105%); assay type: functional
A549 [12] = experiment: Antiproliferative activity against human A549 cells assessed as inhibition of cell growth measured after 72 hrs by MTT assay; assay type: functional, cell-based; details: A549, 72 h
A549 [13] = experiment: Induction of cell cycle arrest in human A549 cells assessed as accumulation at G0/G1 phase at 0.11 uM incubated for 48 hrs by PI staining based flow cytometry analysis (reference value: 84.47%); assay type: functional
A549 [14] = experiment: Induction of apoptosis in human A549 cells assessed as late apoptotic cells at 0.34 uM incubated for 48 hrs by Annexin V/PI staining based flow cytometry analysis (reference value: 2.96%); assay type: functional
A549 [15] = experiment: Induction of apoptosis in human A549 cells assessed as early apoptotic cells at 0.34 uM incubated for 48 hrs by Annexin V/PI staining based flow cytometry analysis (reference value: 1.79%); assay type: functional
A549 [16] = experiment: Downregulation of phosphorylated JNK/JNK protein expression in human A549 cells at 0.11 to 0.34 uM measured after 48 hrs by Western blot analysis; assay type: functional, cell-based; details: dose 0.11-0.34 µM
A549 [17] = experiment: Induction of cell cycle arrest in human A549 cells assessed as accumulation at G0/G1 phase at 0.22 uM incubated for 48 hrs by PI staining based flow cytometry analysis (reference value: 84.47%); assay type: functional
A549 [18] = experiment: Induction of cell cycle arrest in human A549 cells assessed as accumulation at G0/G1 phase at 0.34 uM incubated for 48 hrs by PI staining based flow cytometry analysis (reference value: 84.47%); assay type: functional
A549 [19] = experiment: Antiproliferative activity against human A549 cells assessed as inhibition of cell growth measured after 24 hrs by MTT assay; assay type: functional, cell-based; details: A549, 24 h
A549 [20] = experiment: Induction of apoptosis in human A549 cells assessed as early apoptotic cells at 0.22 uM incubated for 48 hrs by Annexin V/PI staining based flow cytometry analysis (reference value: 1.79%); assay type: functional
A549 [21] = experiment: Induction of apoptosis in human A549 cells assessed as dead cells at 0.34 uM incubated for 48 hrs by Annexin V/PI staining based flow cytometry analysis (reference value: 4.58%); assay type: functional
A549 [22] = experiment: Upregulation of phosphorylated p38/p38 protein expression in human A549 cells at 0.11 to 0.34 uM measured after 48 hrs by Western blot analysis; assay type: functional, cell-based; details: dose 0.11-0.34 µM
A549 [23] = experiment: Antiproliferative activity against human A549 cells assessed as inhibition of cell growth measured after 48 hrs by MTT assay; assay type: functional, cell-based; details: A549, 48 h
A549 [24] = experiment: Induction of apoptosis in human A549 cells assessed as dead cells at 0.11 uM incubated for 48 hrs by Annexin V/PI staining based flow cytometry analysis (reference value: 4.58%); assay type: functional
A549 [25] = experiment: Induction of apoptosis in human A549 cells assessed as live cells at 0.11 uM incubated for 48 hrs by Annexin V/PI staining based flow cytometry analysis (reference value: 90.7%); assay type: functional
A549 [26] = experiment: Downregulation of phosphorylated ERK/ERK protein expression in human A549 cells at 0.11 to 0.34 uM measured after 48 hrs by Western blot analysis; assay type: functional, cell-based; details: dose 0.11-0.34 µM
A549 [27] = experiment: Induction of cell cycle arrest in human A549 cells assessed as accumulation at G2/M phase at 0.34 uM incubated for 48 hrs by PI staining based flow cytometry analysis (reference value: 1.14%); assay type: functional
A549 [28] = experiment: Induction of apoptosis in human A549 cells assessed as live cells at 0.34 uM incubated for 48 hrs by Annexin V/PI staining based flow cytometry analysis (reference value: 90.7%); assay type: functional
A549 [29] = experiment: Induction of cell cycle arrest in human A549 cells assessed as accumulation at G2/M phase at 0.22 uM incubated for 48 hrs by PI staining based flow cytometry analysis (reference value: 1.14%); assay type: functional
A549 [30] = experiment: Inhibition of cell migration in human A549 cells at 0.34 uM measured after 24 hrs by scratch assay relative to control; assay type: functional
A549 [31] = experiment: Induction of apoptosis in human A549 cells assessed as increase in caspase-3 protein expression at 0 to 0.34 uM measured after 48 hrs by Western blot analysis; assay type: functional, cell-based; details: dose 0-0.34 µM
A549 [32] = experiment: Induction of apoptosis in human A549 cells assessed as reduction in Bcl-2 protein expression at 0 to 0.34 uM measured after 48 hrs by Western blot analysis; assay type: functional, cell-based; details: dose 0-0.34 µM
A549 [33] = experiment: Induction of cell cycle arrest in human A549 cells assessed as accumulation at G2/M phase at 0.11 uM incubated for 48 hrs PI staining based by flow cytometry analysis (reference value: 1.14%); assay type: functional
A549 [34] = experiment: Inhibition of cell migration in human A549 cells at 0.11 uM measured after 24 hrs by scratch assay relative to control; assay type: functional
A549 [35] = experiment: Inhibition of cell migration in human A549 cells at 0.22 uM measured after 48 hrs by scratch assay relative to control; assay type: functional
A549 [36] = experiment: Induction of apoptosis in human A549 cells assessed as late apoptotic cells at 0.11 uM incubated for 48 hrs by Annexin V/PI staining based flow cytometry analysis (reference value: 2.96%); assay type: functional
A549 [37] = experiment: Induction of cell cycle arrest in human A549 cells assessed as accumulation at S phase at 0.34 uM incubated for 48 hrs by PI staining based flow cytometry analysis (reference value: 12.105%); assay type: functional

IC50 (MDA-MB-231): 10.3 µM
IC50 (A549 [1]): 0.53 µM
IC50 (HCT-116): 0.33 µM
Structure (SMILES): O=C1c2c(ccc(F)c2Cl)-n2c1nc1nc3ccccc3cc1c2=O

IC50 (MDA-MB-231): > 100 µM
IC50 (A549 [1]): > 100 µM
IC50 (HCT-116): > 100 µM
Structure (SMILES): N/N=C1\c2ccccc2-n2c1nc1nc3ccccc3cc1c2=O

IC50 (MDA-MB-231): 17.6 µM
IC50 (A549 [1]): 10.3 µM
IC50 (HCT-116): 13.5 µM
Structure (SMILES): O=C1c2ccccc2-n2c1nc1cc3ccccc3cc1c2=O [BENZO[K]TRYPTANTHRIN]

The remaining lines, values behind:

Structure (SMILES): O=C1c2ccccc2-n2c1nc1nc3ccccc3cc1c2=O
Activity (A549 [2]): 6.65%
Activity (A549 [3]): Active
IC50 (MDA-MB-231): 3.54 µM
Activity (A549 [4]): 7.83%
Activity (A549 [5]): 25.65%
inhibition at 0.34 µM (A549 [6]): 60%
Activity (A549 [7]): 66.9%
Activity (A549 [8]): 18%
inhibition at 0.11 µM (A549 [9]): 50%
inhibition at 0.22 µM (A549 [10]): 31%
IC50 (A549 [1]): 0.34 µM
Activity (A549 [11]): 22.63%
IC50 (A549 [12]): 0.25 µM
Activity (A549 [13]): 72.8%
Activity (A549 [14]): 19.9%
IC50 (HCT-116): 25.2 µM
Activity (A549 [15]): 7.39%
Activity (A549 [16]): Active
Activity (A549 [17]): 62.47%
Activity (A549 [18]): 60.39%
IC50 (A549 [19]): 0.43 µM
Activity (A549 [20]): 8.47%
Activity (A549 [21]): 9.32%
Activity (A549 [22]): Active
IC50 (A549 [23]): 0.34 µM
Activity (A549 [24]): 7.17%
Activity (A549 [25]): 67.5%
Activity (A549 [26]): Active
Activity (A549 [27]): 9.58%
Activity (A549 [28]): 63.4%
Activity (A549 [29]): 8.87%
inhibition at 0.34 µM (A549 [30]): 38%
Activity (A549 [31]): Active
Activity (A549 [32]): Active
Activity (A549 [33]): 5.59%
inhibition at 0.11 µM (A549 [34]): 22%
inhibition at 0.22 µM (A549 [35]): 56%
Activity (A549 [36]): 17.4%
Activity (A549 [37]): 29.02%

Structure (SMILES): O=C1c2cc(F)c(Cl)cc2-n2c1nc1nc3ccccc3cc1c2=O
IC50 (MDA-MB-231): 10.1 µM
IC50 (A549 [1]): 0.43 µM
IC50 (HCT-116): 0.4 µM

Structure (SMILES): O=c1c2cc3ccccc3nc2nc2n1-c1ccccc1/C2=N\O
IC50 (MDA-MB-231): > 100 µM
IC50 (A549 [1]): > 100 µM
IC50 (HCT-116): > 100 µM

Structure (SMILES): Cc1ccc2c(c1Cl)C(=O)c1nc3nc4ccccc4cc3c(=O)n1-2
IC50 (MDA-MB-231): 1.95 µM
IC50 (A549 [1]): 35.1 µM
IC50 (HCT-116): 43.2 µM

Structure (SMILES): CC[C@@]1(O)C(=O)OCc2c1cc1n(c2=O)Cc2cc3ccccc3nc2-1 [CAMPTOTHECIN]
IC50 (A549 [1]): 0.39 µM

Structure (SMILES): O=C1c2cc(F)ccc2-n2c1nc1nc3ccccc3cc1c2=O
IC50 (MDA-MB-231): 10.1 µM
IC50 (A549 [1]): 6.45 µM
IC50 (HCT-116): 15 µM
